# Results: article PMC8800111 (The Journal of Biological Chemistry, 2021)
# What was measured:
# Format in all cases: cell-based
# [1] = biological target: proteins of U3A human fibrosarcoma cells (4462 proteins detected) (Homo sapiens, UniProt P11717); conditions: protein IGF2R; soluble abundance after heat, U3A cells
# [2] = biological target: proteins of U3A human fibrosarcoma cells (4462 proteins detected) (Homo sapiens, UniProt Q9P000); conditions: protein COMMD9; U3A cells
# [3] = biological target: proteins of U3A human fibrosarcoma cells (4462 proteins detected) (Homo sapiens, UniProt Q9H3P7); conditions: protein ACBD3; U3A, 10 μM, 2 h
# [4] = biological target: proteins of U3A human fibrosarcoma cells (4462 proteins detected) (Homo sapiens, UniProt Q6P2Q9); conditions: protein PRPF8; soluble abundance after heat, U3A cells
# [5] = biological target: proteins of U3A human fibrosarcoma cells (4462 proteins detected) (Homo sapiens, UniProt Q8TF74); conditions: protein WIPF2, U3A cells
# [6] = biological target: proteins of U3A human fibrosarcoma cells (4462 proteins detected) (Homo sapiens, UniProt Q8N9N2); conditions: protein ASCC1; U3A cells
# [7] = biological target: proteins of U3A human fibrosarcoma cells (4462 proteins detected) (Homo sapiens, UniProt P62937); conditions: protein PPIA
# [8] = biological target: proteins of U3A human fibrosarcoma cells (4462 proteins detected) (Homo sapiens, UniProt Q8NFQ8); conditions: protein TOR1AIP2; U3A cells
# [9] = biological target: proteins of U3A human fibrosarcoma cells (4462 proteins detected) (Homo sapiens, UniProt O75147); conditions: protein OBSL1, U3A cells
# [10] = biological target: proteins of U3A human fibrosarcoma cells (4462 proteins detected) (Homo sapiens, UniProt P08670); conditions: protein VIM; U3A cells
# [11] = biological target: proteins of U3A human fibrosarcoma cells (4462 proteins detected) (Homo sapiens, UniProt Q9H7X7); conditions: protein IFT22; U3A, 10 μM, 2 h
# [12] = biological target: proteins of U3A human fibrosarcoma cells (4462 proteins detected) (Homo sapiens, UniProt Q96K76); conditions: protein USP47; U3A cells
# [13] = biological target: proteins of U3A human fibrosarcoma cells (4462 proteins detected) (Homo sapiens, UniProt P27694); conditions: protein RPA1; U3A cells
# [14] = biological target: proteins of U3A human fibrosarcoma cells (4462 proteins detected) (Homo sapiens, UniProt Q96SN8); conditions: protein CDK5RAP2; U3A, 10 μM, 2 h
# [15] = biological target: proteins of U3A human fibrosarcoma cells (4462 proteins detected) (Homo sapiens, UniProt Q8NCN4); conditions: protein RNF169, U3A cells
# [16] = biological target: proteins of U3A human fibrosarcoma cells (4462 proteins detected) (Homo sapiens, UniProt Q9Y5J1); conditions: protein UTP18; U3A cells
# [17] = biological target: proteins of U3A human fibrosarcoma cells (4462 proteins detected) (Homo sapiens, UniProt Q9BZZ5); conditions: protein API5; U3A cells
# [18] = biological target: proteins of U3A human fibrosarcoma cells (4462 proteins detected) (Homo sapiens, UniProt Q9Y2K1); conditions: protein ZBTB1; U3A cells
# [19] = biological target: proteins of U3A human fibrosarcoma cells (4462 proteins detected) (Homo sapiens, UniProt Q96GM5); conditions: protein SMARCD1; U3A cells
# [20] = biological target: proteins of U3A human fibrosarcoma cells (4462 proteins detected) (Homo sapiens, UniProt P23469); conditions: protein PTPRE; soluble abundance after heat, U3A cells
# [21] = biological target: proteins of U3A human fibrosarcoma cells (4462 proteins detected) (Homo sapiens, UniProt Q9Y3A4); conditions: protein RRP7A; U3A cells
# [22] = biological target: proteins of U3A human fibrosarcoma cells (4462 proteins detected) (Homo sapiens, UniProt Q8N9T8); conditions: protein KRI1; soluble abundance after heat, U3A cells
# [23] = biological target: proteins of U3A human fibrosarcoma cells (4462 proteins detected) (Homo sapiens, UniProt P35790); conditions: protein CHKA; U3A, 10 μM, 2 h
# [24] = biological target: proteins of U3A human fibrosarcoma cells (4462 proteins detected) (Homo sapiens, UniProt O95671); conditions: protein ASMTL; U3A, 10 μM, 2 h
# [25] = biological target: proteins of U3A human fibrosarcoma cells (4462 proteins detected) (Homo sapiens, UniProt Q9Y2K3); conditions: protein MYH15; U3A cells
# [26] = biological target: proteins of U3A human fibrosarcoma cells (4462 proteins detected) (Homo sapiens, UniProt P51659); conditions: protein HSD17B4; U3A cells
# [27] = biological target: proteins of U3A human fibrosarcoma cells (4462 proteins detected) (Homo sapiens, UniProt Q9BUL5); conditions: protein PHF23, U3A cells
# [28] = biological target: proteins of U3A human fibrosarcoma cells (4462 proteins detected) (Homo sapiens, UniProt Q8IYB8); conditions: protein SUPV3L1; U3A cells
# [29] = biological target: proteins of U3A human fibrosarcoma cells (4462 proteins detected) (Homo sapiens, UniProt O15400); conditions: protein STX7; U3A cells
# [30] = biological target: proteins of U3A human fibrosarcoma cells (4462 proteins detected) (Homo sapiens, UniProt Q96TA2); conditions: protein YME1L1; U3A cells
# Chain of proteins of U3A human fibrosarcoma cells (4462 proteins detected) (Homo sapiens, UniProt Q96TA2) (Q96TA2 whole entry): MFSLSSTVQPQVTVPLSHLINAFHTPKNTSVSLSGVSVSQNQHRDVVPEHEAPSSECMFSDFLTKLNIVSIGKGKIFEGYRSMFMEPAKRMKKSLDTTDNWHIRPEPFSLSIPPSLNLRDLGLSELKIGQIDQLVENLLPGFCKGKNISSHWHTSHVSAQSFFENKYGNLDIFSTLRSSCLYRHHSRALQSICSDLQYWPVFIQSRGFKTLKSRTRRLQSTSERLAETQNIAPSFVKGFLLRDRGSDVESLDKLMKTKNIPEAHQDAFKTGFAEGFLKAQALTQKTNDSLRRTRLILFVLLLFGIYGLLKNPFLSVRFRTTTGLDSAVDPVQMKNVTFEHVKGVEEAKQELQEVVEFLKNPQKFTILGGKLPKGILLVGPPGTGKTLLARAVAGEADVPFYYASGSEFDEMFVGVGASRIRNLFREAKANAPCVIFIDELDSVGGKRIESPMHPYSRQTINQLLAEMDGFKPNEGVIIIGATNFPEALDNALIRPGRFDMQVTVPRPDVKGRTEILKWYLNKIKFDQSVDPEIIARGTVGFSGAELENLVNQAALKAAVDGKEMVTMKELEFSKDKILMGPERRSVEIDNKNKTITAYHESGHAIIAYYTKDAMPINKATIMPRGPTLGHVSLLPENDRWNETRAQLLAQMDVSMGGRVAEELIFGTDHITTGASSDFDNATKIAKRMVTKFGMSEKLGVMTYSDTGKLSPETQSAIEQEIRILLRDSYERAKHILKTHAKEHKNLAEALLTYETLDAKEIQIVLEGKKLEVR
# Chain of proteins of U3A human fibrosarcoma cells (4462 proteins detected) (Homo sapiens, UniProt P62937) (P62937 whole entry): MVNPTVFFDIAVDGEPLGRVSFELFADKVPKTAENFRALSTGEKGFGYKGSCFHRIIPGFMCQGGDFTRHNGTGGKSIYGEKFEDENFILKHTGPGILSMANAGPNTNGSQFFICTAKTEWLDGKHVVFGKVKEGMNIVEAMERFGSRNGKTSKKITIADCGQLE
# Chain of proteins of U3A human fibrosarcoma cells (4462 proteins detected) (Homo sapiens, UniProt P27694) (P27694 whole entry): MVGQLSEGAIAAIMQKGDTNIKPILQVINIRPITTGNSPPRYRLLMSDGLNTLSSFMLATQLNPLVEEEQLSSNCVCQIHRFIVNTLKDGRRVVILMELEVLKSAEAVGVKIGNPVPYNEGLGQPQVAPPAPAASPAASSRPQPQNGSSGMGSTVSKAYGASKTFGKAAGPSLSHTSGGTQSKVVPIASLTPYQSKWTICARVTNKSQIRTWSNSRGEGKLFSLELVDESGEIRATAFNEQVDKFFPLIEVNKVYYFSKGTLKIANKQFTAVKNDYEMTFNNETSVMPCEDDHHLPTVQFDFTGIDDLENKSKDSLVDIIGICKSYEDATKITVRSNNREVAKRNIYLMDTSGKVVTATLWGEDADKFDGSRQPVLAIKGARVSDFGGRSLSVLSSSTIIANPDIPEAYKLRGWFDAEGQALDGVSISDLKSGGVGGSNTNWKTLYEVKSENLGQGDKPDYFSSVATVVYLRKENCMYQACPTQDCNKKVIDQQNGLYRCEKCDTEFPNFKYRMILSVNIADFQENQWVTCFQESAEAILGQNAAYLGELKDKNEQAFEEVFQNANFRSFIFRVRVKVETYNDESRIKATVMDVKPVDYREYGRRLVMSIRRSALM
# Chain of proteins of U3A human fibrosarcoma cells (4462 proteins detected) (Homo sapiens, UniProt Q9H3P7) (Q9H3P7 whole entry): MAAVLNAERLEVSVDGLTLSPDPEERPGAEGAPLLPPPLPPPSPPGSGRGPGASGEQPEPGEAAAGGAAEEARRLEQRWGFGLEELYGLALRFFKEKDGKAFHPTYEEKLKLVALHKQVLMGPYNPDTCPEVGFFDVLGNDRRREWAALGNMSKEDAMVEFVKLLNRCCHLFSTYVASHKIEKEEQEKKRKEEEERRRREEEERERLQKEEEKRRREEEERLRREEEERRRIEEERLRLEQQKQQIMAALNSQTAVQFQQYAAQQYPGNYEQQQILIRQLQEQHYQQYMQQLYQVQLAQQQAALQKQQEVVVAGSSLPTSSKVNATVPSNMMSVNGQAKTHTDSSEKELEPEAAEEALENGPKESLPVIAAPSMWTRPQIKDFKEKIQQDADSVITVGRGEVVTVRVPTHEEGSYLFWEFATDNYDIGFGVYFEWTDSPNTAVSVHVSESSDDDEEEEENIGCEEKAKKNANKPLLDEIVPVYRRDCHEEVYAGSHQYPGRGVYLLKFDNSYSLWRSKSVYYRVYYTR
# Chain of proteins of U3A human fibrosarcoma cells (4462 proteins detected) (Homo sapiens, UniProt Q9Y2K1) (Q9Y2K1 whole entry): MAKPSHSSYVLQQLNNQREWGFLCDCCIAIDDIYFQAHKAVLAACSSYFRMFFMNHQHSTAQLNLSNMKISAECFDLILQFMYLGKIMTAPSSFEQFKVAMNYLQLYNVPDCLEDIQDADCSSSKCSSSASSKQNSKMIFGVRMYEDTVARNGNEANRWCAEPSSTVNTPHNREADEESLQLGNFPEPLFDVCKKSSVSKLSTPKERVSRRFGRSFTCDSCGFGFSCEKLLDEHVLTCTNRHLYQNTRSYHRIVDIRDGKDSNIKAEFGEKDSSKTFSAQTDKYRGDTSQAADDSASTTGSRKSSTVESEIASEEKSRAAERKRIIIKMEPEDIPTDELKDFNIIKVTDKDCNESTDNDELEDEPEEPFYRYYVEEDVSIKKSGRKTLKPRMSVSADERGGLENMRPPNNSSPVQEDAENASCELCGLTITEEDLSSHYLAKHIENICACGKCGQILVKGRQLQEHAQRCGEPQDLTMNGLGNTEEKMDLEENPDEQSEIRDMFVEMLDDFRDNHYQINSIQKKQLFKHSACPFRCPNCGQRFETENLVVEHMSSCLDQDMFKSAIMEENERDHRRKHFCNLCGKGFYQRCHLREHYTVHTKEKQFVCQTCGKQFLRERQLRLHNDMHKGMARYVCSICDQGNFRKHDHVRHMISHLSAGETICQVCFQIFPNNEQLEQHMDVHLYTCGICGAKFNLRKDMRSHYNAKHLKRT
# Chain of proteins of U3A human fibrosarcoma cells (4462 proteins detected) (Homo sapiens, UniProt Q9Y5J1) (Q9Y5J1 whole entry): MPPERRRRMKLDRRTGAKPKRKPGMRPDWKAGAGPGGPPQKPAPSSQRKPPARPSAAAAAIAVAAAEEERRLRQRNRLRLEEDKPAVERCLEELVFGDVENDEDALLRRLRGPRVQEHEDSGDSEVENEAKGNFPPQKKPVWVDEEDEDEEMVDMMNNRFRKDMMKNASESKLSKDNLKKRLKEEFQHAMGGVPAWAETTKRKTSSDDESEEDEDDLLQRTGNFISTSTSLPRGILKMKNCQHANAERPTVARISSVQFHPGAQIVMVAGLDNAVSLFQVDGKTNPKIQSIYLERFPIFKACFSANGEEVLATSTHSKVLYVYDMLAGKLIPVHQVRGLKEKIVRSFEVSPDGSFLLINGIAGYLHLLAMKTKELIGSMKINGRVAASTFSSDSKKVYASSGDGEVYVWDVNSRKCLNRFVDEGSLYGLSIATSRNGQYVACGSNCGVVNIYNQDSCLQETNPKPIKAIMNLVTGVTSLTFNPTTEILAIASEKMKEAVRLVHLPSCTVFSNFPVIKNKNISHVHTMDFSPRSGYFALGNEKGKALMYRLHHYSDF
# Chain of proteins of U3A human fibrosarcoma cells (4462 proteins detected) (Homo sapiens, UniProt Q9H7X7) (Q9H7X7 whole entry): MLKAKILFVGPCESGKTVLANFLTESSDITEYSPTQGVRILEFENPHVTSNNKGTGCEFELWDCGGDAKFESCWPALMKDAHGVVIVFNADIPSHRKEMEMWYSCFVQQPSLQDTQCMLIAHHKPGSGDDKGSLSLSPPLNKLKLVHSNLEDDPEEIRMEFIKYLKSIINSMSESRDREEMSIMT
# Chain of proteins of U3A human fibrosarcoma cells (4462 proteins detected) (Homo sapiens, UniProt Q9BZZ5) (Q9BZZ5 whole entry): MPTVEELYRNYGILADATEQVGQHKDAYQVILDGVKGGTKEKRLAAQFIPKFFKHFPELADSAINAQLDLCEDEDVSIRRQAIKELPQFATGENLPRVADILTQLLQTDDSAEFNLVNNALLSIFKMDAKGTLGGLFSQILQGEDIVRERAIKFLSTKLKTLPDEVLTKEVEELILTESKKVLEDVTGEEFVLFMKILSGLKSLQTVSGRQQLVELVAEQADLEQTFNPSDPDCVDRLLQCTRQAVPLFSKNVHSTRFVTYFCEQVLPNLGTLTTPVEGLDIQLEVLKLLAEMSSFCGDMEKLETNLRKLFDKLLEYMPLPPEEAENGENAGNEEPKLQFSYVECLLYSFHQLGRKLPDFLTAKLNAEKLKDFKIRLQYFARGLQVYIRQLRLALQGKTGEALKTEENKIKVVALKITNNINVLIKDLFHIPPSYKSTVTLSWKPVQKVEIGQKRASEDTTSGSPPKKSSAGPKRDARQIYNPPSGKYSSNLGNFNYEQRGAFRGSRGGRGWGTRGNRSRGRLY
# Chain of proteins of U3A human fibrosarcoma cells (4462 proteins detected) (Homo sapiens, UniProt O95671) (O95671 whole entry): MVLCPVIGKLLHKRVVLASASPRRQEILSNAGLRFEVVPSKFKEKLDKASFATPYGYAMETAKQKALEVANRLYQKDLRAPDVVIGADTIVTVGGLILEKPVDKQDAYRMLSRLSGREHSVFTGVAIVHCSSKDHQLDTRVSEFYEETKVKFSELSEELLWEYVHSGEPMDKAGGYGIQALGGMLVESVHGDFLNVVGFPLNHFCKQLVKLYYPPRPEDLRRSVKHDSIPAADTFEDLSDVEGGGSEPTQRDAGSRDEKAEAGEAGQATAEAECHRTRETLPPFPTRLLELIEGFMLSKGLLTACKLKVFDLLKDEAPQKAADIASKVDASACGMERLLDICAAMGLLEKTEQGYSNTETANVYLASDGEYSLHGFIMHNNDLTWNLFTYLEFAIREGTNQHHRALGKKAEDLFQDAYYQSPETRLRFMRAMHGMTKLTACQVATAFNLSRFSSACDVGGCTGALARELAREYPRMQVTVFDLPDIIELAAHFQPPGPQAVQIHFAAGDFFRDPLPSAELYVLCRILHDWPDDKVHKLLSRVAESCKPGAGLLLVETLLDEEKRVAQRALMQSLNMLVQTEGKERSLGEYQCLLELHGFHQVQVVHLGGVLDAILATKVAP
# Chain of proteins of U3A human fibrosarcoma cells (4462 proteins detected) (Homo sapiens, UniProt Q9Y3A4) (Q9Y3A4 whole entry): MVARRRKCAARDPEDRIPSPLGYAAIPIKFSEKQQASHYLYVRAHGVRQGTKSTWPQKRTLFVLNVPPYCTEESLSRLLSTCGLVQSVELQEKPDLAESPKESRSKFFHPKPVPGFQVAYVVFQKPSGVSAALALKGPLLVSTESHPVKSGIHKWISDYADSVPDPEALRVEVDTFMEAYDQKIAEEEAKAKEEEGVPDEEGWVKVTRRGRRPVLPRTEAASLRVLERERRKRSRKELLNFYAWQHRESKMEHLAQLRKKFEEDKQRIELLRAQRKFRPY
structure (smiles),measurement,setting,value
CCc1nc(N)nc(N)c1-c1ccc(Cl)cc1 [pyrimethamine],Log2 (PYR/DMSO),[1],0.15
same,Log2 (PYR/DMSO),[2],0.16
same,"Log2 (PYR/DMSO), ACBD3",[3],0.24
same,Log2 (PYR/DMSO),[4],0.14
same,Log2 (PYR/DMSO),[5],-0.05
same,Log2 (PYR/DMSO),[6],0.19
same,Log2 (PYR/DMSO),[7]; U3A cells,-0.03
same,"Log2 (PYR/DMSO), PPIA","[7]; U3A, 10 μM, 2 h",-0.14
same,Log2 (PYR/DMSO),[8],0.17
same,Log2 (PYR/DMSO),[9],-0.04
same,Log2 (PYR/DMSO),[10],0.17
same,"Log2 (PYR/DMSO), IFT22",[11],-0.16
same,Log2 (PYR/DMSO),[12],0.19
same,Log2 (PYR/DMSO),[13],0.16
same,"Log2 (PYR/DMSO), CDK5RAP2",[14],-0.21
same,Log2 (PYR/DMSO),[15],-0.03
same,Log2 (PYR/DMSO),[16],0.21
same,Log2 (PYR/DMSO),[17],0.24
same,Log2 (PYR/DMSO),[18],0.22
same,Log2 (PYR/DMSO),[19],0.17
same,Log2 (PYR/DMSO),[20],0.13
same,Log2 (PYR/DMSO),[21],0.19
same,Log2 (PYR/DMSO),[22],0.14
same,"Log2 (PYR/DMSO), CHKA",[23],0.24
same,"Log2 (PYR/DMSO), ASMTL",[24],0.27
same,Log2 (PYR/DMSO),[25],0.17
same,Log2 (PYR/DMSO),[26],0.17
same,Log2 (PYR/DMSO),[27],-0.04
same,Log2 (PYR/DMSO),[28],0.19
same,Log2 (PYR/DMSO),[29],0.18
same,Log2 (PYR/DMSO),[30],0.16
